Drawing on ChEMBL document CHEMBL3046638, “Synthesis and anticonvulsant activity of novel imidazol5(4H)one and 5-oxo-4,5-dihydroimidazol-1-yl)propanamide derivatives” (Med Chem Res, 2012), this text covers Activity and Time for nine compounds.

For series [1], the system named is Mus musculus. The series is described as follows: Anticonvulsant activity in Mus musculus albino (mouse) assessed as protection against maximal electroshock-induced seizures at 100 mg/kg, po after 1 hr relative to phenytoin. The class given is functional.
Series [2] deals with Mus musculus. Kind of series: Anticonvulsant activity in Mus musculus albino (mouse) assessed as protection against maximal electroshock-induced seizures at 100 mg/kg, po after 1 hr. The class given is functional. For orientation: The maximal electroshock test induces tonic seizures with an electrical stimulus.
The test system of series [3] is Mus musculus. Kind of series: Neurotoxicity in Mus musculus albino (mouse) assessed as stability time on rotorod at 100 mg/kg, po after 30 min. The class given is toxicity, organism-based. Also on record: dose 100 mg/kg, route oral. The following applies: in vivo, 0.5 h. A general note: Falling from the rotarod earlier than controls is read as motor impairment.

As to `COc1ccc(C(=O)CNN2C(=O)/C(=C/c3ccc(F)cc3F)N=C2c2ccc(F)cc2)cc1`, the Activity in series [1] was 71.42%.

`O=C(CNN1C(=O)/C(=C/c2ccc(F)cc2F)N=C1c1ccc(F)cc1)c1ccc(O)cc1`: the Activity in series [1] worked out at 57.15%. Consider `CC(C(=O)Nc1ccccc1)N1C(=O)/C(=C/c2ccc(F)cc2F)N=C1c1ccc(F)cc1` (centres undefined), for which the Activity in series [2] was -0.94%; in series [1], 24.77%.

With `CC(C(=O)Nc1ccc(C#N)cc1)N1C(=O)/C(=C/c2ccc(F)cc2F)N=C1c1ccc(F)cc1` (centres undefined), the Time in series [3] was 285 s. Besides, the Activity in series [1] stood at 96.42%. For `COc1ccc(NC(=O)C(C)N2C(=O)/C(=C/c3ccc(F)cc3F)N=C2c2ccc(F)cc2)cc1` (centres undefined), in that order: 219 s and 96.42%. As for `O=C(CNN1C(=O)/C(=C/c2ccc(F)cc2F)N=C1c1ccc(F)cc1)c1ccccc1`, the Activity in series [2] came to 49.96%; in series [1], 37.5%. As for `O=C(CNN1C(=O)/C(=C/c2ccc(F)cc2F)N=C1c1ccc(F)cc1)c1ccc([N+](=O)[O-])cc1`, in series [1], the Activity came out at 64.28%. Regarding `O=C(CNN1C(=O)/C(=C/c2ccc(F)cc2F)N=C1c1ccc(F)cc1)c1ccc(-c2ccccc2)cc1`, the Activity in series [1] is reported as 96.42%. As to `Cc1ccc(C(=O)CNN2C(=O)/C(=C/c3ccc(F)cc3F)N=C2c2ccc(F)cc2)cc1`, the Time in series [3] was determined as 174 s. The Activity in series [1] came to 92.84%.
